What all share (test): NCI-60 cell line screen, 48 h
Assay [1] concerns EKVX NSCLC.
The test system of assay [2] is SK-MEL-2 melanoma.
The subject of assay [3] is UACC-62 melanoma.
Assay [4] relates to TK-10 renal.
The test system of assay [5] is NCI-H23 lung.
Assay [6] relates to OVCAR-8 ovarian.
Assay [7] deals with ACHN renal.
Assay [8] concerns DU-145 prostate.
The subject of assay [9] is UACC-257 melanoma.
In assay [10] the test system is COLO 205 colon.

We go through eight molecules from PubChem BioAssay (NCI).

Several values for one entry are separate records, joined by “and”; a condition that tells them apart may be missing. Identical values can stand only once.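 1) Cells in 96-well plates. 2) Compound, 48 h, 5 concentrations. 3) Linear interpolation between surrounding doses. 4) Unreached endpoint = highest concentration. Abbreviation: GI50, concentration required for 50% inhibition of growth. TGI: total growth inhibition.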

Take `C/C(=N\NC(=S)N1CCCCC1)c1ccccn1`: the GI50 in [1] was under 0.0145 µM; in assay [2], 0.702 µM; in assay [3] it was 0.106 µM; in [4], 0.472 µM; in [5], under 0.01 µM; in [6], under 0.01 µM. Moreover, the GI50 in [7] was under 0.0116 µM; in [8], 0.236 µM; in assay [9], under 0.01 µM; in assay [10], under 0.01 µM. Also, the TGI in assay [1] stood at 3.99 µM; in assay [2] it was 3.8 µM; in assay [3], 3.93 µM; in assay [4], 4.14 µM; in [5], 9.71 µM; in [6], 2.42 µM. Further, the TGI in [7] was determined as 7.34 µM; in assay [8] it was 5.67 µM; in assay [9], 0.442 µM; in [10], 0.041 µM.

Regarding `Nc1nccc(-c2c(-c3ccc(F)cc3)ncn2C2CCNCC2)n1`, the GI50 is > 25 µM and 5.01 µM in assay [1]; 13.6 µM and 3.64 µM in assay [2]; 11.1 µM and 4.61 µM in assay [3]; 7.66 µM and 2.79 µM in assay [4]; 9.71 µM and 4.41 µM in [5]; 5.88 µM and 1.43 µM in assay [6]. For the same molecule, the GI50 in assay [7] was 7.61 µM and 1.41 µM; in assay [8], 7.77 µM and 3.96 µM; in [9], 10.2 µM and 3.45 µM; in assay [10] it was 0.623 µM and 1.01 µM. Moreover, the TGI was > 25 µM and 24.8 µM in assay [1]; > 25 µM and 13 µM in [2]; over 25 µM in assay [3]; > 25 µM and 14.8 µM in assay [4]; > 25 µM and 18.8 µM in [5]; over 25 µM in [6]. The TGI is over 25 µM in [7]; over 25 µM in [8]; > 25 µM and 17.6 µM in [9]; > 7.09 µM and 11.1 µM in assay [10].

As to `O=c1c2c(=NCCN3CCCC3)cc3c(=O)n(CCCN4CCOCC4)c(=O)c4c(-c5ccc(CN6CCCC6)cc5)cc(c(O)n1CCCN1CCOCC1)c2c4-3`, the GI50 is 0.0828 µM in assay [1]; 0.112 µM in assay [2]; 0.08 µM in assay [3]; 0.0329 µM in assay [4]; 0.0261 µM in assay [5]; under 0.0255 µM in assay [6]. Also, the GI50 in assay [7] was 0.0257 µM; in assay [8], 0.103 µM; in [9] it was 0.194 µM; in assay [10] it was 0.0641 µM. Moreover, the TGI in assay [1] was found to be 0.484 µM; in assay [2], 0.382 µM; in [3] it was 0.239 µM; in [4] it was 0.84 µM; in assay [5], 0.158 µM; in assay [6], 2.24 µM. Further, the TGI in [7] worked out at 0.783 µM; in assay [8] it was 1.23 µM; in assay [9] it was 1.33 µM; in assay [10], 0.327 µM.

`CCN1C/C(=C\c2cc(OC)c(OC)cc2OC)C(=O)/C(=C/c2cc(OC)c(OC)cc2OC)C1`: the GI50 was 3.5 µM in assay [1]; 2.29 µM in [2]; 2.13 µM in assay [3]; 3.88 µM in assay [4]; 3.43 µM in [5]; 3.43 µM in assay [6]. The GI50 in assay [7] was 2.08 µM; in assay [8], 1.85 µM; in assay [9], 4.32 µM; in assay [10], 2.31 µM. For the same molecule, the TGI in [1] is 30.6 µM; in [2], 7.87 µM; in assay [3], 4.28 µM; in [4] it was 11.3 µM; in assay [5] it was 15.4 µM; in assay [6] it was over 100 µM. The TGI in [7] stood at 4.45 µM; in [8] it was 4.12 µM; in assay [9], 28 µM; in assay [10] it was 5.43 µM.

`O=C(Cc1ccc(/C=C/C(=O)c2ncc[nH]2)cc1)Nc1ccc(F)cc1`: the GI50 in [1] was 7.46 µM; in [2], 7.47 µM; in assay [3], 5.92 µM; in assay [4], 7.89 µM; in [5], 1.91 µM; in [6] it was 5.08 µM. Besides, the GI50 in [7] is 4.82 µM; in [8], 1.19 µM; in [9], 8.67 µM; in assay [10] it was 4.54 µM. In addition, the TGI in assay [1] was 32.9 µM; in assay [2], 19 µM; in assay [3], 22.6 µM; in [4] it was 18.4 µM; in assay [5], 9.54 µM; in [6], over 33.3 µM. Also, the TGI in assay [7] turned out to be 9.62 µM; in assay [8] it was 4.58 µM; in [9], 30.6 µM; in [10], 10.8 µM.

`NS(=O)(=O)c1ccc(Nc2cc(-c3cccc(O)c3)[nH]n2)cc1`: the GI50 in assay [1] was over 25 µM; in assay [2] it was over 25 µM; in assay [3], over 24.2 µM; in assay [4], over 25 µM; in assay [5] it was over 25 µM; in assay [6], over 22.6 µM. Further, the GI50 in [7], in assay [8], in [9] and in assay [10] was over 25 µM throughout. The TGI in assay [1], in assay [2], in assay [3], in [4], in [5] and in [6] was over 25 µM in each case. Further, the TGI in [7], in assay [8], in assay [9] and in [10] was over 25 µM in each case.

With `CC(=O)O[C@H]1C(=O)[C@@]2(C)C(C(OC(=O)c3ccccc3)[C@]3(O)C[C@H](OC(=O)C(OC(=O)CCCC(=O)NCCCN(C)C)C(NC(=O)c4ccccc4)c4ccccc4)C(C)=C1C3(C)C)C1(OC(C)=O)COC1C[C@@H]2O` (stereo not given in full), the TGI in assay [1] is over 100 µM; in assay [2], 24.3 µM; in assay [3], 7 µM; in assay [4], 33.3 µM; in [5], 18.2 µM; in [6] it was 15.3 µM. Further, the TGI was over 100 µM in [7], 0.0666 µM in assay [8], 33.5 µM in assay [9] and 0.0147 µM in [10].

Consider `c1cc(NNc2cccc(-c3nn[nH]n3)c2)cc(-c2nn[nH]n2)c1`, for which the TGI in [1], in [2], in assay [3], in [4], in assay [5] and in assay [6] was over 100 µM throughout. The TGI in [7], in [8], in assay [9] and in [10] was over 100 µM each time.
